Active and inactive are the calls of the source. The rule behind the calls is not given here.
What was measured:
[1] = molecular target: T1, Sterol O-acyltransferase 1 (Homo sapiens) (UniProt P35610); assay: Inhibition of ACAT at 0.2 mg/mL
T1 sequence (whole entry): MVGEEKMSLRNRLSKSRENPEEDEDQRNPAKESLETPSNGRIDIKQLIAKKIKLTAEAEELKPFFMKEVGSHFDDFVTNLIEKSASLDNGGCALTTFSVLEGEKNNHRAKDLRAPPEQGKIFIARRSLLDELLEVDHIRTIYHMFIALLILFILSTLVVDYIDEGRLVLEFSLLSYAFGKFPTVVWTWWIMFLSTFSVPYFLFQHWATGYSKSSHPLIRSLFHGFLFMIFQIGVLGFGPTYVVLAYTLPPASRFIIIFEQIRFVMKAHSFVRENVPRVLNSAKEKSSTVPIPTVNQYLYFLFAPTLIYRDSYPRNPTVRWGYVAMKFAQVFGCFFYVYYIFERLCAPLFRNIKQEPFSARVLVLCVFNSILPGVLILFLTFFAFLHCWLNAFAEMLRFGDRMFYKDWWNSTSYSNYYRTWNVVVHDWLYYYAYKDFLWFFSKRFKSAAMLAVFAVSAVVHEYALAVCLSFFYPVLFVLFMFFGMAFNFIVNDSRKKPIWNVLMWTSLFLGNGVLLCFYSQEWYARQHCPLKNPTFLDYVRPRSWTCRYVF

[2] = molecular target: T1, Sterol O-acyltransferase 1 (Homo sapiens); assay: Inhibition of ACAT at 1 mg/mL
[3] = molecular target: T1, Sterol O-acyltransferase 1 (Homo sapiens); assay: Inhibition of ACAT at 0.05 mg/mL

Row | Structure (SMILES) | inhibition [1] | Activity [2] | Activity [3] | Activity [1] | inhibition [2] | inhibition [3]
1 | C[C@@H]1O[C@@H](O[C@H]2[C@H](OC(=O)[C@]34CC[C@@H](C)[C@@](C)(O)[C@H]3C3=CC[C@@H]5[C@@]6(C)CC[C@H](O[C@@H]7OC[C@H](O)[C@H](O[C@@H]8O[C@H](CO)[C@@H](O)[C@H](O)[C@H]8O)[C@H]7O[C@@H]7O[C@@H](C)[C@H](O)[C@@H](O)[C@H]7O)C(C)(C)[C@@H]6CC[C@@]5(C)[C@]3(C)CC4)O[C@H](CO)[C@@H](O)[C@@H]2O)[C@H](O)[C@H](O)[C@H]1O | 10.6% | inactive | inactive |  |  | 
2 | C[C@H]1[C@H](C)CC[C@]2(C(=O)O[C@@H]3O[C@H](CO)[C@@H](O)[C@H](O)[C@H]3O)CC[C@]3(C)C(=CC[C@@H]4[C@@]5(C)C[C@@H](O)[C@H](O[C@@H]6OC[C@H](O)[C@H](O)[C@H]6O)[C@@](C)(CO)[C@@H]5CC[C@]43C)[C@H]12 |  |  | inactive | inactive | 35.5% | 
3 | C[C@@H]1O[C@@H](O[C@H]2[C@H](O[C@H]3CC[C@]4(C)[C@H]5CC=C6[C@H]7[C@]8(CC[C@](C)(OC8=O)[C@@]7(C)O)CC[C@@]6(C)[C@]5(C)CC[C@H]4C3(C)C)OC[C@H](O)[C@@H]2O[C@@H]2O[C@H](CO)[C@@H](O)[C@H](O)[C@H]2O[C@@H]2O[C@H](CO)[C@@H](O)[C@H](O)[C@H]2O)[C@H](O)[C@H](O)[C@H]1O |  | inactive | inactive | inactive |  | 
4 | C[C@@H]1O[C@@H](O[C@H]2[C@H](O[C@H]3CC[C@]4(C)[C@H]5CC=C6[C@@H]7CC(C)(C)CC[C@]7(C(=O)O[C@@H]7O[C@H](CO)[C@@H](O)[C@H](O)[C@H]7O)CC[C@@]6(C)[C@]5(C)CC[C@H]4C3(C)C)OC[C@H](O)[C@@H]2O[C@@H]2O[C@H](CO)[C@@H](O)[C@H](O)[C@H]2O)[C@H](O)[C@H](O)[C@H]1O |  |  |  | inactive | 25.4% | 31.7%
5 | C[C@@H]1CC[C@]2(C(=O)O[C@@H]3O[C@H](CO)[C@@H](O)[C@H](O)[C@H]3O)CC[C@]3(C)C(=CC[C@@H]4[C@@]5(C)CC[C@H](O[C@H]6O[C@@H](C(=O)O)[C@H](O)[C@@H](O)[C@@H]6O)C(C)(C)[C@@H]5CC[C@]43C)[C@@H]2[C@]1(C)O |  |  |  | inactive | 12.5% | 
6 | C[C@@H]1CC[C@]2(C(=O)O[C@@H]3O[C@H](CO)[C@@H](O)[C@H](O)[C@H]3O)CC[C@]3(C)C(=CC[C@@H]4[C@@]5(C)CC[C@H](O[C@@H]6OC[C@H](O)[C@H](O[C@@H]7O[C@H](CO)[C@@H](O)[C@H](O)[C@H]7O)[C@H]6O)C(C)(C)[C@@H]5CC[C@]43C)[C@@H]2[C@]1(C)O |  | inactive |  | inactive |  | 
7 | C[C@@H]1O[C@@H](O[C@H]2[C@H](O[C@H]3CC[C@]4(C)[C@H]5[C@@H](O)CC6=C7[C@]8(CC[C@](C)(OC8=O)[C@@]7(C)O)CC[C@@]6(C)[C@]5(C)CC[C@H]4C3(C)C)OC[C@H](O)[C@@H]2O[C@@H]2O[C@H](CO)[C@@H](O)[C@H](O)[C@H]2O[C@@H]2O[C@H](CO)[C@@H](O)[C@H](O)[C@H]2O)[C@H](O)[C@H](O)[C@H]1O |  | inactive | inactive | inactive |  | 
8 | C[C@@H]1CC[C@]2(C(=O)O[C@@H]3O[C@H](CO)[C@@H](O)[C@H](O)[C@H]3O)CC[C@]3(C)C(=CC[C@@H]4[C@@]5(C)CC[C@H](O[C@@H]6OC[C@H](O)[C@H](O)[C@H]6O)[C@@](C)(CO)[C@@H]5CC[C@]43C)[C@@H]2[C@]1(C)O |  |  | inactive | inactive | 18.9% | 
9 | CC1(C)[C@@H](O[C@@H]2O[C@H](CO)[C@@H](O)[C@H](O)[C@H]2O[C@@H]2O[C@H](CO)[C@@H](O)[C@H](O)[C@H]2O)CC[C@]2(C)[C@H]3C[C@@H](O)C4=C5[C@]6(CC[C@](C)(OC6=O)[C@@]5(C)O)CC[C@@]4(C)[C@]3(C)CC[C@@H]12 |  |  | inactive | inactive | 43% | 
10 | CC1(C)[C@@H](O[C@@H]2OC[C@H](O)[C@H](O)[C@H]2O[C@@H]2O[C@H](CO)[C@@H](O)[C@H](O)[C@H]2O)CC[C@]2(C)[C@H]3C[C@@H](O)C4=C5[C@]6(CC[C@](C)(OC6=O)[C@@]5(C)O)CC[C@@]4(C)[C@]3(C)CC[C@@H]12 |  |  |  | inactive | 24.1% | 
11 | C[C@@H]1O[C@@H](O[C@H]2[C@H](O[C@H]3CC[C@]4(C)[C@H]5CC=C6[C@H]7[C@](C(=O)O[C@@H]8O[C@H](CO)[C@@H](O)[C@H](O)[C@H]8O)(CC[C@@H](C)[C@@]7(C)O)CC[C@@]6(C)[C@]5(C)CC[C@H]4C3(C)C)OC[C@H](O)[C@@H]2O)[C@H](O)[C@H](O)[C@H]1O |  |  | inactive | inactive | 72.8% | 
12 | C[C@@H]1O[C@@H](O[C@H]2[C@H](O[C@H]3CC[C@]4(C)[C@H]5CC=C6[C@@H]7[C@H](O)C(C)(C)CC[C@]7(C(=O)O[C@@H]7O[C@H](CO)[C@@H](O)[C@H](O)[C@H]7O)CC[C@@]6(C)[C@]5(C)CC[C@H]4C3(C)C)OC[C@H](O)[C@@H]2O[C@@H]2O[C@H](CO)[C@@H](O)[C@H](O)[C@H]2O)[C@H](O)[C@H](O)[C@H]1O |  |  | inactive | inactive | 20% | 
13 | C[C@@H]1O[C@@H](O[C@H]2[C@H](OC(=O)[C@]34CCC(C)(C)[C@@H](O)[C@H]3C3=CC[C@@H]5[C@@]6(C)CC[C@H](O[C@@H]7OC[C@H](O)[C@H](O[C@@H]8O[C@H](CO)[C@@H](O)[C@H](O)[C@H]8O)[C@H]7O[C@@H]7O[C@@H](C)[C@H](O)[C@@H](O)[C@H]7O)C(C)(C)[C@@H]6CC[C@@]5(C)[C@]3(C)CC4)O[C@H](CO)[C@@H](O)[C@@H]2O)[C@H](O)[C@H](O)[C@H]1O |  | inactive | inactive | inactive |  | 
14 | C[C@H]1[C@H](C)CC[C@]2(C(=O)O[C@@H]3O[C@H](CO)[C@@H](O)[C@H](O)[C@H]3O)CC[C@]3(C)C(=CC[C@@H]4[C@@]5(C)CC[C@H](O[C@H]6O[C@@H](C(=O)O)[C@H](O)[C@@H](O)[C@@H]6O)[C@@](C)(CO)[C@@H]5CC[C@]43C)[C@H]12 | 29% |  |  |  | 63.9% | 
15 | C[C@@H]1O[C@@H](O[C@H]2[C@H](O[C@H]3CC[C@]4(C)[C@H]5CC=C6[C@H]7[C@](C(=O)O[C@@H]8O[C@H](CO)[C@@H](O)[C@H](O)[C@H]8O)(CC[C@@H](C)[C@@]7(C)O)CC[C@@]6(C)[C@]5(C)CC[C@H]4C3(C)C)OC[C@H](O)[C@@H]2O[C@@H]2O[C@H](CO)[C@@H](O)[C@H](O)[C@H]2O)[C@H](O)[C@H](O)[C@H]1O | 10.3% |  |  |  | 31.8% | 10.9%
16 | CC1(C)CC[C@]2(C(=O)O[C@@H]3O[C@H](CO)[C@@H](O)[C@H](O)[C@H]3O)CC[C@]3(C)C(=CC[C@@H]4[C@@]5(C)CC[C@H](O[C@H]6O[C@@H](C(=O)O)[C@H](O)[C@@H](O)[C@@H]6O)[C@@](C)(CO)[C@@H]5CC[C@]43C)[C@@H]2C1 | 36.5% |  |  |  | 64.3% | 15.7%
17 | C=C1CC[C@]2(C(=O)O[C@@H]3O[C@H](CO)[C@@H](O)[C@H](O)[C@H]3O[C@@H]3O[C@@H](C)[C@H](O)[C@@H](O)[C@H]3O)CC[C@]3(C)C(=CC[C@@H]4[C@@]5(C)CC[C@H](O[C@@H]6OC[C@H](O)[C@H](O[C@@H]7O[C@H](CO)[C@@H](O)[C@H](O)[C@H]7O[C@@H]7O[C@H](CO)[C@@H](O)[C@H](O)[C@H]7O)[C@H]6O[C@@H]6O[C@@H](C)[C@H](O)[C@@H](O)[C@H]6O)C(C)(C)[C@@H]5CC[C@]43C)[C@@H]2[C@]1(C)O |  |  |  | inactive | 60% | 
